Read-outs that look alike come from different tables or passages of the source.
Key:
SM-4 cells = settings: cited from earlier work
[1] = system: mild and moderate Alzheimer's disease patients; settings: reference value, cited from earlier work
[2] = system: mild and moderate Alzheimer's disease patients; assay: Change in ADAS-Cog score of Alzheimer's patients over nine months of treatment; format: in vivo, human; settings: Mild + Moderate AD patients combined, observed, negative change = improvement
Text: In this example, mild and moderate patients have been treated with an alkanesulfonic acid, namely 3-amino-1-propanesulfonic acid, in combination with other therapeutic compounds used to diminish symptoms characteristic of Alzheimer's disease (e.g., loss of cognitive functions). The examples comprise the use of an alkanesulfonic acid in combination with cognitive enhancers such as acetylcholine esterase inhibitors (“AChEi”). The effect of these combination therapies on the change in ADAS-cog score in the patients was determined.
Patients were treated with the test alkanesulfonic acid for a period of 9 months. A group of patients received the test compound alone while another group were treated with the test compound in combination with an AChEi, namely donepezil.
Effect on ADAS-Cog. Upon entering the study, Alzheimer's patients were categorized as being “mild” or “moderate” according to their MMSE (“Mini Mental State Examination”) score. B.W.Rover, et al., “Mini-mental state exam in clinical practice.” Hospital Practice 22(1 A), 99 et seq. (1987). (According to this examination a MMSE score in the range of 19 to 26 was considered “mild,” and a score in the range 13 to 18 was considered “moderate”). Then, the change in mental function of these patients was analyzed by using their ADAS-Cog scores, which were recorded periodically over a nine month period. […]

Aβ CSF concentration = Aβ CSF concentration of patients at time 0 and 3 months (FPLC, ELISA); format: in vivo, human; settings: for effect on CSF level of Aβ: 3-month period
Protocol: The alkanesulfonic acid used in the study is known to have an effect on the concentration of Aβ in the brain. We also determined the effect of test compound on the change in Aβ CSF levels of patients with mild to moderate Alzheimer's disease compared to that seen in patients treated with a triple combination of test compound with AChEi and statin.
Patients treated with alkanesulfonic acid test compound in the presence or absence of AChEi and statin were evaluated for their Aβ CSF concentration at time 0 and 3 months following the initiation of treatment with the alkanesulfonic acid. The change in AP42 CSF concentration was compared to the respective placebo group.
(§1) Methodology. CSF was obtained from patients before and after treatment with the test compound at daily doses of 100 mg, 200 mg, or 300 mg. CSF was fractionated by FPLC following treatment with formic acid, and then the Aβ containing fraction was lyophilised. The amount of Aβ peptide was measured using an ELISA assay (Biosource). […] The presence of the alkanesulfonic acid in the CSF was determined in patients who had received treatment for three months. In these patients, CSF was collected five hours following dosing, and levels of alkanesulfonic acid were determined by LC-MS/MS.

[3] = Presence of the alkanesulfonic acid in CSF of patients (LC-MS/MS); format: in vivo, human; settings: patients treated three months, CSF collected five hours following dosing, 100, 200 or 300 mg daily
Protocol: as §1

AP42 in the brain = settings: transgenic mice; previously shown; cited from earlier work
amyloid deposits = settings: mice genetically prone to overproduce amyloid-β; nine week period; cited from earlier work

## CCOC(=O)C(C)(C)Oc1ccc(Cl)cc1 [clofibrate, ethyl 2-(p-chlorophenoxy)-2-methylpropionate]
SM-4 cells; SM-4 cells, concentration range of 50-500 μM
  Aβ42 extracellular levels: increase Aβ42 extracellular levels

## COc1cc2c(cc1OC)C(=O)C(CC1CCN(Cc3ccccc3)CC1)C2 (centres unmarked) [AchEi, donepezil]
[1]; Mild AD patient group
  Change in ADAS-Cog over 9 months: +5.0 reference
[1]; Moderate AD patient group
  Change in ADAS-Cog over 9 months: +2.5 reference

## NCCCS(=O)(=O)O [Test compound, 3-amino-1-propanesulfonic acid]
[2]
  Change in ADAS-Cog over 9 months: −0.5 observed
[2]; listed as test compound
  Change in ADAS-Cog over 9 months: −0.5
Aβ CSF concentration; 100 mg daily doses, majority of patients
  effect on CSF level of Aβ: stable Aβ CSF levels
Aβ CSF concentration; 200 or 300 mg daily doses
  effect on CSF level of Aβ: reduce the CSF level of Aβ
Aβ CSF concentration; mild to moderate AD patients, time 0 vs 3 months after start of treatment
  decrease in Aβ CSF concentration: 34%
Aβ CSF concentration; vs placebo (test compound) or vs AChEi and statin (triple therapy), 3 months
  difference in change of Aβ CSF concentration compared to the respective control group: 49%
[3]
  presence of the alkanesulfonic acid in CSF: present in CSF of patients in a dose-dependent manner
AP42 in the brain
  levels of soluble and insoluble AP42 in the brain: decrease the levels of both soluble and insoluble AP42

## Oc1c(I)cc(Cl)c2cccnc12 [Clioquinol, 5-chloro-7-iodo-8-hydroxyquinoline]
Amyloid deposits
  adverse effects: no adverse effects
  amyloid deposits: cut amyloid deposits in half

## Cc1cccc(Nc2cc(Cl)nc(SCC(=O)O)n2)c1C [pirinixic acid]
SM-4 cells; concentration-dependent manner
  Aβ42 production or release from SM-4 cells: decrease in Aβ42 production or release

— patent US20050031651A1, “Therapeutic formulations for the treatment of beta-amyloid related diseases” (priority 2002, published 2005)
